How the values were obtained:
[1] = Cytotoxicity against human MKN45 cells after 72 hrs by MTT assay; details: MKN-45, 72 h
A549 [2] = assay: Potency index, ratio of IC50 for foretinib to IC50 for test compound for cytotoxicity against human A549 cells; type: functional
Mus musculus [3] = assay: Tmax in mouse at 35 mg/kg, po administered as single dose by LC/MS/MS analysis; type: ADME, organism-based; details: in vivo
[4] = target: Platelet-derived growth factor receptor alpha (Homo sapiens, UniProt P16234); assay: Inhibition of PDGFR-alpha (unknown origin) using poly(glu,Tyr)4:1 as substrate incubated for 30 mins by homogeneous time-resolved fluorescence assay
Sequence of Platelet-derived growth factor receptor alpha (P16234 whole entry): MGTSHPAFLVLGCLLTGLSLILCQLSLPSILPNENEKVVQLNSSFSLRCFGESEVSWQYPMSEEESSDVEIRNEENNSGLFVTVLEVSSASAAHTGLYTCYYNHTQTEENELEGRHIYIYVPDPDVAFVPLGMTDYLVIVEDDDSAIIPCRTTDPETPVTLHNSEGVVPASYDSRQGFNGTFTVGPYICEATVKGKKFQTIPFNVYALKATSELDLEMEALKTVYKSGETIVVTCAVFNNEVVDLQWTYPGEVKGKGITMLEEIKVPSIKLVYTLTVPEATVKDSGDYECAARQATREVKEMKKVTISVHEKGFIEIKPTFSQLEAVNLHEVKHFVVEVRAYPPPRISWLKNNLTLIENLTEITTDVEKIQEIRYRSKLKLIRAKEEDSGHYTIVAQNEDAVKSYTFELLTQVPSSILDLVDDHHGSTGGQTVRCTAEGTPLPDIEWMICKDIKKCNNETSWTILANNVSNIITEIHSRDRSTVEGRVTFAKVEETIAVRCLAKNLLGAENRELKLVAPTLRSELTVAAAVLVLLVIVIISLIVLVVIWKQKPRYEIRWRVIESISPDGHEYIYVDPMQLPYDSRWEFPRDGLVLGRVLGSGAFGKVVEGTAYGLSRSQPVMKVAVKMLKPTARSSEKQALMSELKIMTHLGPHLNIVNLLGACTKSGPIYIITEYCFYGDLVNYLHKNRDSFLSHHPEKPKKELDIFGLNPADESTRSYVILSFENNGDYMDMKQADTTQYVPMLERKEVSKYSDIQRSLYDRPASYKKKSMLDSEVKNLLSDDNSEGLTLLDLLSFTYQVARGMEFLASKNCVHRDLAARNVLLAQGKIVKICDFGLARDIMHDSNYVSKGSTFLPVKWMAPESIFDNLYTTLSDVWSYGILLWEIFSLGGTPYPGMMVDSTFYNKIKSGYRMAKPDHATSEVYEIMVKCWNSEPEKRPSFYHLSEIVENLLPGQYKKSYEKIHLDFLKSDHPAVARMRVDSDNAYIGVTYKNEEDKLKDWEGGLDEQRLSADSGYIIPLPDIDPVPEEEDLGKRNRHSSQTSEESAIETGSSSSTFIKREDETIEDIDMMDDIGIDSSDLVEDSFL

PBL = assay: Cytotoxicity against human PBL cells after 72 hrs by MTT assay; type: cell-based
HT-29 [5] = assay: Potency index, ratio of IC50 for foretinib to IC50 for test compound for cytotoxicity against human HT-29 cells; type: functional
A549 [6] = assay: Cytotoxicity against human A549 cells after 72 hrs by MTT assay; type: functional, cell-based; details: A549, 72 h
[7] = Antitumor activity against human MKN45 cells xenografted in Balb/c mouse assessed as tumor growth inhibition at 50 mg/kg, po bid for 24 days relative to control; type: functional, MKN-45; design: scale not given: the % may be the effect or the level left
Mus musculus [8] = assay: Toxicity in Balb/c mouse xenografted with human MKN45 cells assessed as change in body weight at 50 mg/kg, po bid for 24 days; type: organism-based, MKN-45; details: in vivo, 576 h
[9] = Potency index, ratio of IC50 for foretinib to IC50 for test compound for cytotoxicity against human MKN45 cells; type: functional, MKN-45
[10] = target: Vascular endothelial growth factor receptor 2 (Homo sapiens, UniProt P35968); assay: Inhibition of KDR (unknown origin) using poly(glu,Tyr)4:1 as substrate incubated for 30 mins by homogeneous time-resolved fluorescence assay
[11] = target: Epidermal growth factor receptor (Homo sapiens, UniProt P00533); assay: Inhibition of EGFR (unknown origin) using poly(glu,Tyr)4:1 as substrate incubated for 30 mins by homogeneous time-resolved fluorescence assay
Sequence of Epidermal growth factor receptor (P00533 whole entry): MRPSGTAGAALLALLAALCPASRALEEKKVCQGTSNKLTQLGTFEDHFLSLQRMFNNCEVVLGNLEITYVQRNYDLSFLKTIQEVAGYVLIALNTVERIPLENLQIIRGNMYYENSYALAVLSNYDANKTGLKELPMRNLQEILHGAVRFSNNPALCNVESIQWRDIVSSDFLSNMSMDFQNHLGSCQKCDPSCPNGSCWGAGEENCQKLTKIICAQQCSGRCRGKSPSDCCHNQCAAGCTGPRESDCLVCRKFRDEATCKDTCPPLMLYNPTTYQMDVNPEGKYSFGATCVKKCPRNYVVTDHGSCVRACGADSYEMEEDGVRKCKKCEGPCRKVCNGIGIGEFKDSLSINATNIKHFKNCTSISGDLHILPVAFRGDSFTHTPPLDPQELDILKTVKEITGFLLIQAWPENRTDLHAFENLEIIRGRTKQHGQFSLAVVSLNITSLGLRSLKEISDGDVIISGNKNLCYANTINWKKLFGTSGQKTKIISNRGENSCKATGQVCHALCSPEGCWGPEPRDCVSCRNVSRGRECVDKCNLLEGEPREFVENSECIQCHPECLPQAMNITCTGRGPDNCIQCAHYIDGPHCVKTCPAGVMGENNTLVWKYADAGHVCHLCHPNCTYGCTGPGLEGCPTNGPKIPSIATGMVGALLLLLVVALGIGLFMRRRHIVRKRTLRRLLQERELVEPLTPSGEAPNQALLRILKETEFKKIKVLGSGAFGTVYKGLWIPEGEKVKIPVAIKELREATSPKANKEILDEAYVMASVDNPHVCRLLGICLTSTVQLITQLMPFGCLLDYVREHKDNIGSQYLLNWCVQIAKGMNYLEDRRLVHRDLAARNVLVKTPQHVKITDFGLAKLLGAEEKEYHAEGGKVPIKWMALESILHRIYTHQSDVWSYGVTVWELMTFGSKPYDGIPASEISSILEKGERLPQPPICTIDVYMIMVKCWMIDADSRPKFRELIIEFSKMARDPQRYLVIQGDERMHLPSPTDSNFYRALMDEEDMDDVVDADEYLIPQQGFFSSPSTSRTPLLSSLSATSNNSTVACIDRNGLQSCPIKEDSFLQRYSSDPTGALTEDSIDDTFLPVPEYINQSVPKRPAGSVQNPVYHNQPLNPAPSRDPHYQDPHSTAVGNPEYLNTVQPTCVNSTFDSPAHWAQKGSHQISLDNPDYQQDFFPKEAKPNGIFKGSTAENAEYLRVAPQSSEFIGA

HT-29 [12] = assay: Antitumor activity against human HT-29 cells xenografted in Balb/c mouse assessed as tumor growth inhibition at 50 mg/kg, po bid for 27 days relative to control; type: functional; design: scale not given: the % may be the effect or the level left
[13] = target: Mast/stem cell growth factor receptor Kit (Homo sapiens, UniProt P10721); assay: Inhibition of c-kit (unknown origin) using poly(glu,Tyr)4:1 as substrate incubated for 30 mins by homogeneous time-resolved fluorescence assay
Sequence of Mast/stem cell growth factor receptor Kit (P10721 whole entry): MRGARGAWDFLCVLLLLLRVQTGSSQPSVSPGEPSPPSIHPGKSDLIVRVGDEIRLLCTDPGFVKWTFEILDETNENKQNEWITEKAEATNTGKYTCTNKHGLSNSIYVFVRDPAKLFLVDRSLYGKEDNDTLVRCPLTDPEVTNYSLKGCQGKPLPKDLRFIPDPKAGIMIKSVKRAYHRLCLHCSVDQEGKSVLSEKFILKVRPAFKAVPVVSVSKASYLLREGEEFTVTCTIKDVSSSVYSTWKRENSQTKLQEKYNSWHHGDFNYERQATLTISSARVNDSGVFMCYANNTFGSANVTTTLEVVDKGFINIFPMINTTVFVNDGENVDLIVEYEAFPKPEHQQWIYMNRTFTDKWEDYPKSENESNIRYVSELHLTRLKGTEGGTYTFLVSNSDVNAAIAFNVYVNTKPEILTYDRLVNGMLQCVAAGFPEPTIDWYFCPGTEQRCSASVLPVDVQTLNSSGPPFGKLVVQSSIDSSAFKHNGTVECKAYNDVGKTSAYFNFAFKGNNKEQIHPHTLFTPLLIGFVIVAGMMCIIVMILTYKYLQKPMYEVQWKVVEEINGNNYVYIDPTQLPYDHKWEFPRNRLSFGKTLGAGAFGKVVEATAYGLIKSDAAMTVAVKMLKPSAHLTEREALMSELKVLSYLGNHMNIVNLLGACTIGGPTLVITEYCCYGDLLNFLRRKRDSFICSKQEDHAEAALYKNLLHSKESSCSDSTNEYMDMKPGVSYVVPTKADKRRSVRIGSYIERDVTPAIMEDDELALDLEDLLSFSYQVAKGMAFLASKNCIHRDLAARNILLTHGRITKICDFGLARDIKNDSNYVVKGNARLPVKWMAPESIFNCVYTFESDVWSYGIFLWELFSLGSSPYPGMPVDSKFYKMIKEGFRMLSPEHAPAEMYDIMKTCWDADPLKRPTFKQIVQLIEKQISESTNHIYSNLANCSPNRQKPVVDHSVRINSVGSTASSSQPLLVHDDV

[14] = target: T1, Receptor-type tyrosine-protein kinase FLT3 (Homo sapiens, UniProt P36888); assay: Inhibition of Flt-3 (unknown origin) using poly(glu,Tyr)4:1 as substrate incubated for 30 mins by homogeneous time-resolved fluorescence assay
T1 sequence (P36888 whole entry): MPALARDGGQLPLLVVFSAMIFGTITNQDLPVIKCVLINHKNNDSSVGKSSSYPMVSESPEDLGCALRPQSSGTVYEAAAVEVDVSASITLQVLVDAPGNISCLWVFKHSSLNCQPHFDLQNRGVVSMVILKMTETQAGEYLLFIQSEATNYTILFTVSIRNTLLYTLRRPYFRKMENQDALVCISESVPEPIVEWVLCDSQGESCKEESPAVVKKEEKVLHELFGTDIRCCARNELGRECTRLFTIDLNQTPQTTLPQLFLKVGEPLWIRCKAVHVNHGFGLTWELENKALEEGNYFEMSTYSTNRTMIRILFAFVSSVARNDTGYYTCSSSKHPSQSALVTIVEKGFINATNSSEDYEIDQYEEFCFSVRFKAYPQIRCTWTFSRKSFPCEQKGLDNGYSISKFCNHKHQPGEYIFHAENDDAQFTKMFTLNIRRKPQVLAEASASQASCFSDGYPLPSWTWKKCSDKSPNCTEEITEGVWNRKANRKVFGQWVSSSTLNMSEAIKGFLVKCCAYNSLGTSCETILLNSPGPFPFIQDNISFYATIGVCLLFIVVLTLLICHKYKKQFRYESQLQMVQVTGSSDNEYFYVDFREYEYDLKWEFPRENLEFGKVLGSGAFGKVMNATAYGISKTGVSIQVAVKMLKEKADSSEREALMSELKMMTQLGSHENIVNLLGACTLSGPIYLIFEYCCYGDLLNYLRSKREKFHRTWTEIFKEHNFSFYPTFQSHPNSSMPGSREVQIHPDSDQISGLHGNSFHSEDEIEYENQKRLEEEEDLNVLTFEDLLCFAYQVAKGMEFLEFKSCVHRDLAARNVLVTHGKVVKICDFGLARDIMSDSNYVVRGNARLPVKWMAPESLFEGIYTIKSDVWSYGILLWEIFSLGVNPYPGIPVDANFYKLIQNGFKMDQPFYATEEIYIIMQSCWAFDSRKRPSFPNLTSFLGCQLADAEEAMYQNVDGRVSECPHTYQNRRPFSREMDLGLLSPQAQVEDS

[15] = Mean residence time (0 to infinity) in mouse at 20 mg/kg, iv or 35 mg/kg, po administered as single dose by LC/MS/MS analysis; type: ADME, organism-based; details: in vivo
Mus musculus [16] = assay: Cmax in mouse at 35 mg/kg, po administered as single dose measured at 0.25 to 24 hrs by LC/MS/MS analysis; type: ADME, organism-based; design: dose 35 mg/kg, route oral; details: in vivo
[17] = target: Hepatocyte growth factor receptor (Homo sapiens, UniProt P08581); assay: Inhibition of c-Met kinase (unknown origin) using poly(glu,Tyr)4:1 as substrate incubated for 30 mins by homogeneous time-resolved fluorescence assay
Sequence of Hepatocyte growth factor receptor (P08581 whole entry): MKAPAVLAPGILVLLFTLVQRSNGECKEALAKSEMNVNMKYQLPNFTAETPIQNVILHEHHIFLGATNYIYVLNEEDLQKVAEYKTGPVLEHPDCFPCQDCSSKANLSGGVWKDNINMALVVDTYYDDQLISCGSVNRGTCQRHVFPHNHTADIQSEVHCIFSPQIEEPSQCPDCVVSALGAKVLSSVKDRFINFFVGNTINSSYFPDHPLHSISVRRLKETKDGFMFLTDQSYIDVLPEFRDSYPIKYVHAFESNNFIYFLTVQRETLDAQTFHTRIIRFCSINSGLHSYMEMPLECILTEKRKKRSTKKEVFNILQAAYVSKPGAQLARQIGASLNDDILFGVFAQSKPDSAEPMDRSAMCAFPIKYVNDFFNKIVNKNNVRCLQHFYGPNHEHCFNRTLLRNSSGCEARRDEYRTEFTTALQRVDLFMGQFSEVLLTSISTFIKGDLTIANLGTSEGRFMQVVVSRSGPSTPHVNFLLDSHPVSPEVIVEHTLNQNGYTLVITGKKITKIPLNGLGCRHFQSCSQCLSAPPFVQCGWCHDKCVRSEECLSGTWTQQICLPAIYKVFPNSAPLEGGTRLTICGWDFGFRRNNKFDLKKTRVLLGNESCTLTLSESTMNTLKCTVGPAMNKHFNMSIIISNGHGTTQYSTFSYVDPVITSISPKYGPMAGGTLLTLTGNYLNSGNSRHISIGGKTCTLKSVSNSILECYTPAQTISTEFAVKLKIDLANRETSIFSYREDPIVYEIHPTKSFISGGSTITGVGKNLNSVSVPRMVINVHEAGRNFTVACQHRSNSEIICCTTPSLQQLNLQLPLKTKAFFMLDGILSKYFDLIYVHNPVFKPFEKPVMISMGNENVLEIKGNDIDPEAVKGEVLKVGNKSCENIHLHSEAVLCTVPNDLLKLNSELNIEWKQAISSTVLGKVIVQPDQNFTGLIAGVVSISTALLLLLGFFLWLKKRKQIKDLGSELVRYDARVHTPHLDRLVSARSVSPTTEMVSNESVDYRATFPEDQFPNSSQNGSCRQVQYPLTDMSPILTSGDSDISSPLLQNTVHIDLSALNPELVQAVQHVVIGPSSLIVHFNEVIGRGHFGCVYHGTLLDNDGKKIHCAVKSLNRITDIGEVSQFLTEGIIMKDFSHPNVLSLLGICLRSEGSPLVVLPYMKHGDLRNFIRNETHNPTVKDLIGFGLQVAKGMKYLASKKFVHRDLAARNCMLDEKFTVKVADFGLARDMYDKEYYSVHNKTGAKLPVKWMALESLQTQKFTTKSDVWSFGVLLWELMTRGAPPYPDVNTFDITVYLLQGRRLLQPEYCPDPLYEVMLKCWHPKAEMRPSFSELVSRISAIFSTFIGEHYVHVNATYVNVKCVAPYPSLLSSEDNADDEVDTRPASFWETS

HT-29 [18] = assay: Cytotoxicity against human HT-29 cells after 72 hrs by MTT assay; details: HT-29, 72 h
[19] = Apparent volume of distribution during terminal phase in mouse at 35 mg/kg, po administered as single dose measured at 0.25 to 24 hrs by LC/MS/MS analysis; type: ADME, organism-based; details: in vivo, read-out: Vz/F
MDA-MB-231 = assay: Cytotoxicity against human MDA-MB-231 cells after 72 hrs by MTT assay; type: functional, cell-based; details: MDA-MB-231, 72 h
[20] = target: Macrophage-stimulating protein receptor (Homo sapiens, UniProt Q04912); assay: Inhibition of Ron (unknown origin) using poly(glu,Tyr)4:1 as substrate incubated for 30 mins by homogeneous time-resolved fluorescence assay
Mus musculus [21] = assay: Toxicity in Balb/c mouse xenografted with human HT-29 cells assessed as change in body weight at 50 mg/kg, po bid for 27 days; type: organism-based; details: in vivo, 648 h
Mus musculus [22] = assay: Half life in mouse at 20 mg/kg, iv or 35 mg/kg, po administered as single dose by LC/MS/MS analysis; type: ADME, organism-based; details: in vivo
Mus musculus [23] = assay: AUC (0 to infinity) in mouse at 20 mg/kg, iv or 35 mg/kg, po administered as single dose by LC/MS/MS analysis; type: ADME, organism-based; details: in vivo
Mus musculus [24] = assay: Apparent oral clearance in mouse at 35 mg/kg, po administered as single dose measured at 0.25 to 24 hrs by LC/MS/MS analysis; type: ADME, organism-based; details: in vivo

| Tmax (Mus musculus [3]) | MRT inf [15] | Cmax (Mus musculus [16]) | Vd/F [19] | t1/2 (Mus musculus [22]) | AUC (Mus musculus [23]) | Compound | IC50 [1] | IC50 (A549 [6]) | IC50 (HT-29 [18]) | IC50 (MDA-MB-231) | other results |
| --- | --- | --- | --- | --- | --- | --- | --- | --- | --- | --- | --- |
| 6 h | 23.4 h | 680 ng/mL | 43.9 L/kg | 13.75 h | 16500 ng·h/mL | C=CCc1cccc(/C=N/NC(=O)Nc2ccc(Oc3ccnc4cc(OCCCN5CCCCC5)c(OC)cc34)c(F)c2)c1O | 39 nM | 11 nM | 27 nM | 440 nM | Ratio IC50 (A549 [2]): 15.4; IC50 [4]: 212 nM; IC50 (PBL): 107000 nM; Ratio IC50 (HT-29 [5]): 9.6; Activity [7]: 70.18%; Activity (Mus musculus [8]): Non-toxic; Ratio IC50 [9]: 1.7; IC50 [10]: 210 nM; IC50 [11]: > 100000 nM; Activity (HT-29 [12]): 65.86%; IC50 [13]: 162 nM; IC50 [14]: 367 nM; IC50 [17]: 1.54 nM; IC50 [20]: 14.5 nM; Activity (Mus musculus [21]): Non-toxic |
| 0.75 h | 13.2 h | 78 ng/mL | 371 L/kg | 3.3 h | 910 ng·h/mL | COc1cc2c(Oc3ccc(NC(=O)N/N=C/c4ccc(F)cc4Cl)cc3F)ccnc2cc1OCCCN1CCCCC1 | 270 nM | 130 nM | 260 nM | 790 nM | CL/F (Mus musculus [24]): 1334 mL/min/kg |

Source: ChEMBL document CHEMBL3763046 (Bioorg Med Chem, 2016)
